Measurements from patent US20190231771A1, “METHODS FOR TREATMENT AND PREVENTION OF OPIOID INDUCED CONSTIPATION USING ORAL COMPOSITIONS OF METHYLNALTREXONE” (Salix Pharmaceuticals, Ltd., priority 2011, published 2019).
Where “and” joins values, the source holds several entries; their conditions need not be identical. Equal entries are not always repeated. Where two headings read alike, the source gives them in different places.

What was measured:
[1] = Comparative bioavailability: single oral 150, 300, 450 mg MNTX tablets vs 12 mg SC injection, crossover; assay type: in vivo, human; conditions: for t1/2 / half-life: harmonic mean; for bioavailability: arithmetic mean AUC0-∞, read-out: dose-normalized bioavailability of oral MNTX relative to SC MNTX
Source text: The oral dosage levels and formulation of MNTX evaluated here were the same as those in a phase 3 study of oral MNTX tablets, with the exception of a nonfunctional coating on the MNTX tablets. […] The pharmacokinetics of the uncoated tablet used in the phase 3 study and the coated tablets used in the current study were compared in a separate study. […] A single-dose pharmacokinetic profile of oral MNTX tablets was also planned for evaluation in this study.
Presented herein is a randomized, open-label, crossover study consisting of 6 dosing sequences, each with 2 dosing periods; the dosing periods were separated by 7 days. All subjects were housed in the clinical research unit from Day −1 through Day 14 and were discharged on Day 15, which concluded their participation in the study. Prior to receiving study drug on Days 1 and 8, the subjects underwent an overnight fast of at least 10 hours, beginning on Days 0 and 7, respectively. In both dosing periods, the subjects received a single oral dose of MNTX tablets (150, 300, or 450 mg) or a single SC injection of MNTX (12 mg). The dosing was conducted in a crossover fashion (e.g., a tablet was administered at one visit and a SC injection was administered at the alternate visit). The strength of oral methylnaltrexone dose (150 mg, 300 mg, or 450 mg) and the dosing sequence (Day 1: oral tablet; Day 8: SC injection vs the alternate dosing order) for each subject were determined by random assignment. Each oral dose was administered with 240 mL of room temperature drinking water. The subjects were instructed to drink all of the water and were told to swallow the tablets whole (e.g., not to chew, divide, or crush them). Blood samples were collected for pharmacokinetic analyses prior to dosing (approximately 1 hour prior) on Day 1, and at 0.25, 0.5, 1, 2, 4, 6, 8, 10, 12, 16, 24, 36, 48, 72, 96, 120, 144, and 168 hours after dosing on Days 1 and 8.
Each tablet contained 150 mg of the active pharmaceutical ingredient, MNTX.
Each injection vial contained 12 mg of the active pharmaceutical ingredient, MNTX, per 0.6 mL of solution (i.e., 20 mg/mL solution).
In this study, all 48 enrolled subjects received study drug in each of the 2 study periods and were included in the safety and pharmacokinetic analyses.
This was a phase 1, randomized, open-label, crossover study consisting of 6 dosing sequences, each with 2 dosing periods. In both dosing periods, the subjects received a single oral dose of MNTX tablets (150, 300, or 450 mg) or a single SC injection of MNTX (12 mg). The dosing was conducted in a crossover fashion (i.e., a tablet was administered at one visit and a SC injection was administered at the alternate visit).
Forty-eight subjects were enrolled and 47 subjects (97.9%) completed the study; one subject discontinued due to personal reasons after receiving study drug in both study periods. The subjects received study drug in accordance with the randomization schedule; specifically, 16 subjects each received a single oral dose of 150, 300, and 450 mg MNTX tablets and all 48 subjects received a single 12 mg SC injection of MNTX.

[2] = Yuan et al. 2005 J Clin Pharm 45:538-546; cited from earlier work
[3] = MNTX 12 mg SC Injection, single dose, mean
[4] = MNTX 150 mg Tablet vs 12 mg SC Injection
[5] = MNTX 150 mg Tablet, single oral dose, mean
[6] = MNTX 300 mg Tablet, single oral dose, mean
[7] = MNTX 450 mg Tablet, single oral dose, mean

SMILES: C[N@+]1(CC2CC2)CC[C@]23c4c5ccc(O)c4O[C@H]2C(=O)CC[C@@]3(O)[C@H]1C5.[Br-] [MNTX, (R)—N-(cyclopropylmethyl) noroxymorphone methobromide]
- t1/2 ([1]; MNTX 12 mg SC Injection, single dose): 9.16 h
- AUC0-∞ [1, 3]: 269.09 ng·h/mL
- CL/F [1, 3]: 45698.7 mL/h and 45698.71 mL/h
- Cmax [1, 3]: 174.01 ng/mL
- AUC0-t GMR, tablet/injection × 100 [1, 4]: 35.61%
- AUC0-∞ GMR, tablet/injection × 100 [1, 4]: 36.41%
- Cmax GMR, tablet/injection × 100 [1, 4]: 5.779%
- t1/2 ([1]; MNTX 150 mg Tablet, single oral dose): 13.95 h
- AUC0-∞ [1, 5]: 106.87 ng·h/mL
- CL/F [1, 5]: 1735472.22 mL/h
- Cmax [1, 5]: 13.22 ng/mL
- AUC0-t GMR, tablet/injection × 100 ([1]; MNTX 300 mg Tablet vs 12 mg SC Injection): 74.73%
- t1/2 ([1]; MNTX 300 mg Tablet, single oral dose): 14.16 h
- AUC0-∞ [1, 6]: 231.24 ng·h/mL
- CL/F [1, 6]: 1564638.99 mL/h
- Cmax [1, 6]: 26.22 ng/mL
- AUC0-t GMR, tablet/injection × 100 ([1]; MNTX 450 mg Tablet vs 12 mg SC Injection): 121.4%
- t1/2 ([1]; MNTX 450 mg Tablet, single oral dose): 16.57 h
- AUC0-∞ [1, 7]: 373.32 ng·h/mL
- CL/F [1, 7]: 1664001.3 mL/h and 1664001.28 mL/h
- Cmax [1, 7]: 39.89 ng/mL
- AUC(0-t) ([1]; human, plasma, oral, 150 mg, MNTX 150 mg Tablet, read-out: AUC0-t, Geometric LSM): 94.2 ng·h/mL
- AUC(0-inf) ([1]; human, plasma, oral, 150 mg, MNTX 150 mg Tablet, read-out: AUC0-∞, Geometric LSM): 96.7 ng·h/mL
- Cmax ([1]; human, plasma, oral, 150 mg, MNTX 150 mg Tablet, read-out: Cmax, Geometric LSM): 9.47 ng/mL
- AUC(0-t) ([1]; human, plasma, oral, 300 mg, MNTX 300 mg Tablet, read-out: AUC0-t, Geometric LSM): 198 ng·h/mL
- AUC(0-inf) ([1]; human, plasma, oral, 300 mg, MNTX 300 mg Tablet, read-out: AUC0-∞, Geometric LSM): 200 ng·h/mL
- Cmax ([1]; human, plasma, oral, 300 mg, MNTX 300 mg Tablet, read-out: Cmax, Geometric LSM): 21.8 ng/mL
- AUC(0-t) ([1]; human, plasma, oral, 450 mg, MNTX 450 mg Tablet, read-out: AUC0-t, Geometric LSM): 321 ng·h/mL
- AUC(0-inf) ([1]; human, plasma, oral, 450 mg, MNTX 450 mg Tablet, read-out: AUC0-∞, Geometric LSM): 327 ng·h/mL
- Cmax ([1]; human, plasma, oral, 450 mg, MNTX 450 mg Tablet, read-out: Cmax, Geometric LSM): 32.7 ng/mL
- half-life ([1]; human, plasma, po, 150 mg, MNTX 150 mg Tablet, single oral dose): 14 h
- AUC(0-t) ([1]; human, plasma, po, 150 mg, MNTX 150 mg Tablet, single oral dose, mean, read-out: AUC0-t): 105 ng·h/mL
- AUC(0-inf) ([1]; human, plasma, po, 150 mg, MNTX 150 mg Tablet, single oral dose, mean, read-out: AUC0-∞): 107 ng·h/mL
- Cmax ([1]; human, plasma, po, 150 mg, MNTX 150 mg Tablet, single oral dose, mean, read-out: Cmax): 13.2 ng/mL
- half-life ([1]; human, plasma, po, 300 mg, MNTX 300 mg Tablet, single oral dose): 14.2 h
- AUC(0-t) ([1]; human, plasma, po, 300 mg, MNTX 300 mg Tablet, single oral dose, mean, read-out: AUC0-t): 229 ng·h/mL
- AUC(0-inf) ([1]; human, plasma, po, 300 mg, MNTX 300 mg Tablet, single oral dose, mean, read-out: AUC0-∞): 231 ng·h/mL
- Cmax ([1]; human, plasma, po, 300 mg, MNTX 300 mg Tablet, single oral dose, mean, read-out: Cmax): 26.2 ng/mL
- half-life ([1]; human, plasma, po, 450 mg, MNTX 450 mg Tablet, single oral dose): 16.6 h
- AUC(0-t) ([1]; human, plasma, po, 450 mg, MNTX 450 mg Tablet, single oral dose, mean, read-out: AUC0-t): 367 ng·h/mL
- AUC(0-inf) ([1]; human, plasma, po, 450 mg, MNTX 450 mg Tablet, single oral dose, mean, read-out: AUC0-∞): 373 ng·h/mL
- Cmax ([1]; human, plasma, po, 450 mg, MNTX 450 mg Tablet, single oral dose, mean, read-out: Cmax): 39.9 ng/mL
- half-life ([1]; human, plasma, sc, 12 mg, MNTX 12 mg SC Injection, single dose): 9.2 h
- AUC(0-t) ([1]; human, plasma, sc, 12 mg, MNTX 12 mg SC Injection, single dose, mean, read-out: AUC0-t): 268 ng·h/mL
- AUC(0-inf) ([1]; human, plasma, sc, 12 mg, MNTX 12 mg SC Injection, single dose, mean, read-out: AUC0-∞): 269 ng·h/mL
- Cmax ([1]; human, plasma, sc, 12 mg, MNTX 12 mg SC Injection, single dose, mean, read-out: Cmax): 174 ng/mL
- AUC(0-t) ([1]; human, plasma, sc, 12 mg, MNTX 12 mg SC Injection, read-out: AUC0-t, Geometric LSM): 264 ng·h/mL
- AUC(0-inf) ([1]; human, plasma, sc, 12 mg, MNTX 12 mg SC Injection, read-out: AUC0-∞, Geometric LSM): 266 ng·h/mL
- Cmax ([1]; human, plasma, sc, 12 mg, MNTX 12 mg SC Injection, read-out: Cmax, Geometric LSM): 164 ng/mL
- Tmax ([1]; human, plasma, 12 mg SC injection, read-out: median Tmax (converted)): 0.25 h
- Tmax ([1]; human, plasma, MNTX 150 mg Tablet, single oral dose, median, read-out: Tmax): 2 h
- Tmax ([1]; human, plasma, MNTX 300 mg Tablet, single oral dose, median, read-out: Tmax): 1.5 h
- Tmax ([1]; human, plasma, MNTX 450 mg Tablet, single oral dose, median, read-out: Tmax): 2 h
- bioavailability ([1]; human, plasma, oral 150 mg vs 12 mg SC): 3.2%
- bioavailability ([1]; human, plasma, oral 300 mg vs 12 mg SC): 3.4%
- bioavailability ([1]; human, plasma, oral 450 mg vs 12 mg SC): 3.7%
- Tmax ([1]; human, plasma, oral MNTX tablets 150 mg to 450 mg, read-out: median Tmax, range over the oral doses): 1.5 to 2 h
- tolerability ([1]; oral 150, 300, 450 mg tablets and 12 mg SC injection, healthy volunteers): well tolerated
- Tmax shorter following SC MNTX 12 mg versus oral MNTX 150, 300, and 450 mg ([1]; single doses): 6- to 8 fold
- mean AUC0-∞ following SC MNTX 12 mg higher versus oral MNTX 300 mg ([1]; single doses): 16%
- mean AUC0-∞ following SC MNTX 12 mg lower versus oral MNTX 450 mg ([1]; single doses): 28%
- t1/2 shorter following SC MNTX 12 mg versus oral MNTX 150, 300, and 450 mg ([1]; single doses): 5 to 7 h
- dose recovered in urine following IV administration [2]: 31.5%-49.6%
